From ChEMBL document CHEMBL1156726, “Discovery of a potent and selective aurora kinase inhibitor” (Bioorg Med Chem Lett, 2008)

Experiments:
Aurora kinase A = biological target: T1, Aurora kinase A (Homo sapiens, UniProt O14965)
T1 sequence (O14965 whole entry): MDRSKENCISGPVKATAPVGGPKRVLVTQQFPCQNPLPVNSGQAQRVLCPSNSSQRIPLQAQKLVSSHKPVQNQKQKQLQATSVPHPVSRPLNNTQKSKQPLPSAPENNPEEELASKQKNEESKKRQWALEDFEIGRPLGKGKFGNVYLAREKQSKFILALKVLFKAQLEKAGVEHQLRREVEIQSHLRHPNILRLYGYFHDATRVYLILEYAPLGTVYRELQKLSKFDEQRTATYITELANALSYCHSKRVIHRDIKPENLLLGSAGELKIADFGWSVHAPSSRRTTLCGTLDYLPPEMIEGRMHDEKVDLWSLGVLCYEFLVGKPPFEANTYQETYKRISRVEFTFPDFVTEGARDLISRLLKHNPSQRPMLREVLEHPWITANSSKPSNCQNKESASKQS
Description: Inhibition of Aurora A by radiometric assay

HCT-116 [1] = assay: Cell cycle arrest in human HCT116 cells assessed as accumulation of 4N DNA phase after 16 hrs by FACS; settings: HCT-116, 16 h
HCT-116 [2] = assay: Antiproliferative activity against human HCT116 cells assessed as BrdU incorporation; assay type: functional, cell-based
Aurora kinase B = Aurora kinase B (Homo sapiens, UniProt Q96GD4); assay: Inhibition of Aurora B by radiometric assay
Mus musculus [3] = assay: Decrease in histone H3 phosphorylation in human HCT116 cells xenografted mouse at 50 mg/kg, ip after 6 hrs; assay type: functional; settings: HCT-116, ip, route intraperitoneal
Mus musculus [4] = assay: Decrease in histone H3 phosphorylation in human HCT116 cells xenografted mouse at 100 mg/kg, ip after 10 hrs; assay type: functional; settings: HCT-116, ip, route intraperitoneal
Mus musculus [5] = assay: Decrease in histone H3 phosphorylation in human HCT116 cells xenografted mouse at 50 mg/kg, ip after 10 hrs; assay type: functional; settings: HCT-116, ip, route intraperitoneal
HCT-116 [6] = assay: Decrease in histone H3 phosphorylation in human HCT116 cells after 16 hrs by Western blot; settings: HCT-116, 16 h
Mus musculus [7] = assay: Decrease in histone H3 phosphorylation in human HCT116 cells xenografted mouse at 100 mg/kg, ip after 6 hrs; assay type: functional; settings: HCT-116, ip, route intraperitoneal
[8] = Drug level in HCT116 xenografted mouse tumor at 100 mg/kg, ip after 6 hrs; assay type: ADME, organism-based, Neoplasm; design: dose 100 mg/kg, route intraperitoneal; settings: human, tumor (HCT116 xenograft), read-out: Drug uptake
[9] = Drug level in HCT116 xenografted mouse tumor at 100 mg/kg, ip after 10 hrs; assay type: ADME, organism-based, Neoplasm; design: dose 100 mg/kg, route intraperitoneal; settings: human, tumor (HCT116 xenograft), read-out: Drug uptake
[10] = Drug level in HCT116 xenografted mouse tumor at 50 mg/kg, ip after 10 hrs; assay type: ADME, organism-based, Neoplasm; design: dose 50 mg/kg, route intraperitoneal; settings: human, tumor (HCT116 xenograft), read-out: Drug uptake
[11] = Drug level in HCT116 xenografted mouse tumor at 50 mg/kg, ip after 6 hrs; assay type: ADME, organism-based, Neoplasm; design: dose 50 mg/kg, route intraperitoneal; settings: human, tumor (HCT116 xenograft), read-out: Drug uptake
HCT-116 [12] = assay: Antitumor activity against human HCT116 cells xenografted in mouse at 100 mg/kg, ip administered twice weekly for 3 weeks; assay type: functional; settings: HCT-116, ip, 504 h, route intraperitoneal, read-out: TGI

Aurora kinase B, sequence (Q96GD4 whole entry): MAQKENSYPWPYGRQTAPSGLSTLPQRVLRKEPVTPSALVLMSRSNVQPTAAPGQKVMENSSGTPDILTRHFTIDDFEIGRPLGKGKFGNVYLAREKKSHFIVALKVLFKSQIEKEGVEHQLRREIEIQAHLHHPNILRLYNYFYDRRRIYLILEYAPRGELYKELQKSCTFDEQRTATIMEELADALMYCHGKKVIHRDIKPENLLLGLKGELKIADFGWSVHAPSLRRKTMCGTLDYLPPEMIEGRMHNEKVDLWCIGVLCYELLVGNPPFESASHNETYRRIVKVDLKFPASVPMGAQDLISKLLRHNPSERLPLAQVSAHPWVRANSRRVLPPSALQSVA

SMILES | IC50 (Aurora kinase A) | EC50 (HCT-116 [1]) | EC50 (HCT-116 [2]) | IC50 (Aurora kinase B) | inhibition in vivo at 50 mg/kg (Mus musculus [3]) | inhibition in vivo at 50 mg/kg (Mus musculus [5]) | EC50 (HCT-116 [6]) | other results
O=C(Nc1ccc(CCNc2ncnc3ccsc23)cc1)c1cccc(C(F)(F)F)c1 | 3200 nM |  |  |  |  |  |  | 
O=C(Nc1cccc(C(F)(F)F)c1)c1ccc(CCNc2ncnc3ccsc23)cc1 | > 20000 nM |  |  |  |  |  |  | 
O=C(Nc1ccc(CCNc2ncnc3ccsc23)cc1)Nc1cccc(C(F)(F)F)c1 | 1200 nM |  |  |  |  |  |  | 
O=C(Nc1cccc(CCNc2ncnc3ccsc23)c1)Nc1cccc(C(F)(F)F)c1 | > 20000 nM |  |  |  |  |  |  | 
O=C(Nc1cccc(C(F)(F)F)c1)Nc1cn(CCNc2ncnc3ccsc23)cn1 | 1200 nM |  |  |  |  |  |  | 
COc1cccc(NC(=O)Nc2ncc(CCNc3ncnc4ccsc34)s2)c1 | 50 nM | 16 nM | 34 nM |  |  |  |  | 
O=C(Cc1cccc(C(F)(F)F)c1)Nc1ncc(CCNc2ncnc3ccsc23)s1 | > 10000 nM |  |  | 580 nM |  |  |  | IC50 (HCT-116 [2]): > 10000 nM
C#Cc1cccc(NC(=O)Nc2ncc(CCNc3ncnc4ccsc34)s2)c1 | 41 nM | < 16 nM | 14 nM |  |  |  |  | 
O=C(Cc1ncc(CCNc2ncnc3ccsc23)s1)Nc1cccc(C(F)(F)F)c1 | 4900 nM |  |  | 442 nM |  |  |  | 
O=C(Nc1cccc(C(F)(F)F)c1)Nc1ncc(CCNc2ncnc3ccsc23)s1 |  | < 16 nM |  | 14 nM | 75% | 50% | < 16 nM | inhibition in vivo at 100 mg/kg (Mus musculus [4]): 75%; inhibition in vivo at 100 mg/kg (Mus musculus [7]): 75%
O=C(Nc1ncc(CCNc2ncnc3ccsc23)s1)c1cccc(C(F)(F)F)c1 | 2500 nM | 1000 nM |  |  |  |  |  | 
O=C(Nc1ccccc1)Nc1ncc(CCNc2ncnc3ccsc23)s1 | 52 nM |  |  | 120 nM |  |  |  | 
CN(C(=O)Nc1ncc(CCNc2ncnc3ccsc23)s1)c1ccccc1 | 7200 nM |  |  |  |  |  |  | IC50 (HCT-116 [2]): > 10000 nM
O=C(Nc1ccc(Cl)cc1)Nc1ncc(CCNc2ncnc3ccsc23)s1 | 39 nM | 16 nM | 30 nM |  |  |  |  | 
O=C(Nc1ncc(CCNc2ncnc3ccsc23)s1)Nc1ccccc1Cl | 280 nM | > 250 nM | 376 nM |  |  |  |  | 
O=C(Nc1cc(CN2CCCC2)cc(C(F)(F)F)c1)Nc1ncc(CCNc2ncnc3ccsc23)s1 | 4 nM | < 16 nM | 6 nM | 22 nM | 25% | 0% | 16 nM | inhibition in vivo at 100 mg/kg (Mus musculus [4]): 25%; inhibition in vivo at 100 mg/kg (Mus musculus [7]): 50%; concentration at 6 h [8]: 6.2 µM; concentration at 10 h [9]: 8.76 µM
O=C(Nc1ncc(CCNc2ncnc3ccsc23)s1)Nc1cccc2cc[nH]c12 | 30 nM | 16 nM | 31 nM | 19 nM | 75% | 75% | 16 nM | concentration at 10 h [10]: 3.67 µM; inhibition in vivo at 100 mg/kg (Mus musculus [4]): 75%; concentration at 6 h [11]: 4.82 µM; inhibition in vivo at 100 mg/kg (Mus musculus [7]): 75%; concentration at 6 h [8]: 16.9 µM; concentration at 10 h [9]: 4.36 µM
O=C(Nc1ncc(CCNc2ncnc3ccsc23)s1)NC1CCCCC1 | 270 nM | 63 nM | 72 nM | 61 nM |  |  |  | 
O=C(Nc1ccc(Cl)c(Cl)c1)Nc1ncc(CCNc2ncnc3ccsc23)s1 | 96 nM | 16 nM | 24 nM | 13 nM | 0% | 0% | 16 nM | concentration at 10 h [10]: 12.5 µM; inhibition in vivo at 100 mg/kg (Mus musculus [4]): 25%; concentration at 6 h [11]: 21.3 µM; inhibition in vivo at 100 mg/kg (Mus musculus [7]): 25%; concentration at 6 h [8]: 49.5 µM; concentration at 10 h [9]: 54.8 µM
O=C(Nc1cccc(F)c1)Nc1ncc(CCNc2ncnc3ccsc23)s1 | 23 nM | < 16 nM | 6 nM | 18 nM | 25% | 0% | < 16 nM | concentration at 10 h [10]: < 1 µM; inhibition in vivo at 100 mg/kg (Mus musculus [4]): 25%; concentration at 6 h [11]: 1.2 µM; inhibition in vivo at 100 mg/kg (Mus musculus [7]): 75%; concentration at 6 h [8]: 101 µM; concentration at 10 h [9]: 19.8 µM
O=C(Nc1cccc(C(F)(F)F)c1)Nc1nc(CCNc2ncnc3ccsc23)cs1 | > 20000 nM |  |  |  |  |  |  | 
Cc1cccc(NC(=O)Nc2ncc(CCNc3ncnc4ccsc34)s2)c1 | 9 nM | < 16 nM | 19 nM | 54 nM |  |  |  | 
O=C(Nc1cccc(C(F)(F)F)c1)Nc1cn(CCNc2ncnc3ccsc23)nn1 | 250 nM |  |  |  |  |  |  | 
O=C(Nc1cccc(CCN2CCC2)c1)Nc1ncc(CCNc2ncnc3ccsc23)s1 | 53 nM | 16 nM | 121 nM | 120 nM | 0% | 0% | 63 nM | concentration at 10 h [10]: < 1 µM; concentration at 6 h [11]: < 1 µM
O=C(Nc1ccc(F)c(Cl)c1)Nc1ncc(CCNc2ncnc3ccsc23)s1 | 11 nM | < 16 nM | 5 nM | 51 nM | 75% | 25% | < 16 nM | concentration at 10 h [10]: 15.6 µM; inhibition in vivo at 100 mg/kg (Mus musculus [4]): 50%; concentration at 6 h [11]: 25.8 µM; inhibition in vivo at 100 mg/kg (Mus musculus [7]): 75%; concentration at 6 h [8]: 112 µM; concentration at 10 h [9]: 56.1 µM
CS(=O)(=O)O.O=C(Nc1cccc(Cl)c1)Nc1ncc(CCNc2ncnc3ccsc23)s1 [SNS-314 MESYLATE] |  | < 16 nM |  |  | 75% | 50% | < 16 nM | concentration at 10 h [10]: 3.72 µM; inhibition in vivo at 100 mg/kg (Mus musculus [4]): 75%; concentration at 6 h [11]: 9.07 µM; inhibition in vivo at 100 mg/kg (HCT-116 [12]): 96%; inhibition in vivo at 100 mg/kg (Mus musculus [7]): 75%; concentration at 6 h [8]: 28.6 µM; concentration at 10 h [9]: 31.6 µM
